Reference: patent US11912681B2, “Crystalline and salt forms of PPAR agonist compounds” (Mitobridge, Inc., priority 2016, dated 2024)
Blank lines part the entries; values can stand above or below the molecule they belong to.

Columns and labels:
Type in all cases: physicochemical
[1] = Physical stability on storage by XRPD; details: all storage conditions of the stability study
Experimental: (§1) The material was stored at 4° C., 25° C./60% RH, 40° C., and 40° C./75% RH for eight weeks as well as stressed conditions of 70° C. and 70° C./75% RH for two weeks. In addition, photostability was also measured after exposing the material to two cycles of ICH conditions. Degradation and recovery was measured by HPLC. See Table 6 for HPLC results, including percent recovery of solids and relative retention time area percentages, compared against the standard stored at 4° C.
XRPD was used to check the physical stability.

[2] = Stability of Compound A salts in water (XRPD); details: about 20 mg in 1 mL water, overnight, 20° C., 850 rpm
Experimental: The stability of the sulfate, phosphate, L-lysine, and TRIS salts prepared in Example 3 were tested. Approximately 20 mg of each sample was combined with 1 mL of water in microcentrifuge tubes. The samples were allowed to mix overnight on a temperature controlled shaker at 20° C. at 850 rpm. The solids were characterized by XPRD to determine if a solid state form change occurred.

[3] = Dynamic vapor sorption analysis (hygroscopicity)
Text: At approximately 90% RH, the material reversibly picks up approximately 3.5% water by weight.

[4] = Chemical stability study, degradation and recovery by HPLC
Experimental: as §1

[5] = Thermodynamic stability form (slurry) screen, XRPD; details: fifteen days
Experimental: The vials were sealed then placed onto temperature controlled stir plates and stirred for fifteen days at 500 rpm.

[6] = Relative thermodynamic stability of hemisulfate form 1 and form 2 (DSC, competition slurry); details: ethyl acetate, two days at 25° C. then eight days at 4° C., slurried with form 1
Experimental: […] Both forms were still present in the slurry, so the experiment was moved to 4° C.
After two days, both forms were still present in the slurry, so the experiment was moved to 4° C.

physical stability, solid state form (XRPD) [1]: No changes in solid state form | solid state form change (XRPD) after mixing in water [2]: no change in the solids | water picked up by weight (DVS) ([3]; 25° C., approximately 90% RH, reversible): approximately 3.5% | solid form after DVS (XRPD) ([3]; after DVS at 25° C.): remained Compound A hemisulfate form 1 | % recovery of solids (HPLC) ([4]; 4° C., 4 wk): 101% | % recovery of solids (HPLC) ([4]; 4° C., 8 wk): 100% | % recovery of solids (HPLC) ([4]; 25° C./60% RH, 4 wk): 100% | % recovery of solids (HPLC) ([4]; 25° C./60% RH, 8 wk): 99% | % recovery of solids (HPLC) ([4]; 40° C., 4 wk): 101% | % recovery of solids (HPLC) ([4]; 40° C., 8 wk): 101% | % recovery of solids (HPLC) ([4]; 40° C./75% RH, 4 wk): 101% | % recovery of solids (HPLC) ([4]; 40° C./75% RH, 8 wk): 100% | % recovery of solids (HPLC) ([4]; 70° C., 2 wk): 101% | % recovery of solids (HPLC) ([4]; 70° C./75% RH, 2 wk): 101% | % recovery of solids (HPLC) ([4]; Control (dark) of photostability): 100% | % recovery of solids (HPLC) ([4]; Photo, two cycles of ICH conditions): 98% | Results (solid state form after slurry) ([5]; 2-Methyl-THF, 25° C.): No change in form | Results (solid state form after slurry) ([5]; 2-Propanol, 50° C.): No change in form | Results (solid state form after slurry) ([5]; Acetone, 25° C.): No change in form | Results (solid state form after slurry) ([5]; Acetonitrile, 50° C.): No change in form | Results (solid state form after slurry) ([5]; CPME, 50° C.): No change in form | Results (solid state form after slurry) ([5]; Dichloromethane, 4° C.): No change in form | Results (solid state form after slurry) ([5]; Ethanol, 50° C.): No change in form | Results (solid state form after slurry) ([5]; Ethyl Acetate, 50° C.): No change in form | Results (solid state form after slurry) ([5]; Tetrahydrofuran, 25° C.): No change in form | Results (solid state form after slurry) ([5]; Toluene, 50° C.): No change in form | Results (solid state form after slurry) ([5]; Water, 25° C.): No change in form | Results (solid state form after slurry) ([5]; Water/Acetonitrile (1/3, v/v), 4° C.): No change in form
SMILES: Cc1cnc(-c2ccc(C(F)(F)F)cc2)n1Cc1ccccc1OCCC[C@@H](C)CC(=O)O [Compound A hemisulfate form 1, (R)-3-methyl-6-(2-((5-methyl-2-(4-(trifluoromethyl)phenyl)-1H-imidazol-1-yl)methyl)phenoxy)hexanoic acid]

competition slurry outcome (XRPD) [6]: remained a mixture of forms
SMILES: Cc1cnc(-c2ccc(C(F)(F)F)cc2)n1Cc1ccccc1OCCC[C@@H](C)CC(=O)O [Compound A hemisulfate form 2, (R)-3-methyl-6-(2-((5-methyl-2-(4-(trifluoromethyl)phenyl)-1H-imidazol-1-yl)methyl)phenoxy)hexanoic acid]
